Numbers after ± are expanded uncertainties.
Test: xn = mol fraction of the nth substance listed
Conditions: 101 kPa, Liquid; for viscosity: Falling or rolling sphere viscometry; for mass density: Vibrating tube method

CC(C)CO [2-methyl-1-propanol] + CC(C)(C)O
Conditions	mass density [kg/m3]	viscosity [mPa·s]
308.15 K, x1 = 0.1038	773.016 ± 0.12	2.723 ± 0.021
308.15 K, x1 = 0.2004	775.321 ± 0.12	2.802 ± 0.022
308.15 K, x1 = 0.3131	777.898 ± 0.12	2.84 ± 0.022
308.15 K, x1 = 0.3971	779.742 ± 0.12	2.837 ± 0.022
308.15 K, x1 = 0.4999	781.894 ± 0.12	2.812 ± 0.022
308.15 K, x1 = 0.6002	783.901 ± 0.12	2.773 ± 0.022
308.15 K, x1 = 0.6999	785.765 ± 0.12	2.723 ± 0.021
308.15 K, x1 = 0.7993	787.468 ± 0.12	2.667 ± 0.021
308.15 K, x1 = 0.8941	788.855 ± 0.12	2.607 ± 0.02
308.15 K, x1 = 1	790.12 ± 0.12	2.382 ± 0.019
313.15 K, x1 = 0.1038	767.906 ± 0.13	2.19 ± 0.017
313.15 K, x1 = 0.2004	770.357 ± 0.13	2.263 ± 0.018
313.15 K, x1 = 0.3131	773.062 ± 0.12	2.312 ± 0.018
313.15 K, x1 = 0.3971	774.993 ± 0.12	2.327 ± 0.018
313.15 K, x1 = 0.4999	777.281 ± 0.12	2.329 ± 0.018
313.15 K, x1 = 0.6002	779.435 ± 0.12	2.317 ± 0.018
313.15 K, x1 = 0.6999	781.451 ± 0.12	2.294 ± 0.018
313.15 K, x1 = 0.7993	783.274 ± 0.12	2.264 ± 0.018
313.15 K, x1 = 0.8941	784.79 ± 0.12	2.229 ± 0.017
313.15 K, x1 = 1	786.12 ± 0.12	2.116 ± 0.017
318.15 K, x1 = 0.1038	762.689 ± 0.13	1.786 ± 0.014
318.15 K, x1 = 0.2004	765.271 ± 0.13	1.852 ± 0.015
318.15 K, x1 = 0.3131	768.112 ± 0.13	1.904 ± 0.015
318.15 K, x1 = 0.3971	770.15 ± 0.13	1.93 ± 0.015
318.15 K, x1 = 0.4999	772.578 ± 0.12	1.949 ± 0.015
318.15 K, x1 = 0.6002	774.881 ± 0.12	1.955 ± 0.015
318.15 K, x1 = 0.6999	777.066 ± 0.12	1.954 ± 0.015
318.15 K, x1 = 0.7993	779.045 ± 0.12	1.94 ± 0.015
318.15 K, x1 = 0.8941	780.694 ± 0.12	1.919 ± 0.015
318.15 K, x1 = 1	782.06 ± 0.12	1.861 ± 0.015
323.15 K, x1 = 0.1038	757.428 ± 0.13	1.479 ± 0.012
323.15 K, x1 = 0.2004	760.154 ± 0.13	1.536 ± 0.012
323.15 K, x1 = 0.3131	763.135 ± 0.13	1.59 ± 0.013
323.15 K, x1 = 0.3971	765.278 ± 0.13	1.619 ± 0.013
323.15 K, x1 = 0.4999	767.832 ± 0.13	1.643 ± 0.013
323.15 K, x1 = 0.6002	770.282 ± 0.13	1.658 ± 0.013
323.15 K, x1 = 0.6999	772.615 ± 0.12	1.664 ± 0.013
323.15 K, x1 = 0.7993	774.761 ± 0.12	1.662 ± 0.013
323.15 K, x1 = 0.8941	776.498 ± 0.12	1.655 ± 0.013
323.15 K, x1 = 1	777.93 ± 0.12	1.602 ± 0.013
328.15 K, x1 = 0.1038	752.049 ± 0.13	1.243 ± 0.0098
328.15 K, x1 = 0.2004	754.907 ± 0.13	1.293 ± 0.01
328.15 K, x1 = 0.3131	758.027 ± 0.13	1.342 ± 0.011
328.15 K, x1 = 0.3971	760.272 ± 0.13	1.372 ± 0.011
328.15 K, x1 = 0.4999	762.978 ± 0.13	1.4 ± 0.011
328.15 K, x1 = 0.6002	765.582 ± 0.13	1.42 ± 0.011
328.15 K, x1 = 0.6999	768.076 ± 0.13	1.433 ± 0.011
328.15 K, x1 = 0.7993	770.382 ± 0.13	1.438 ± 0.011
328.15 K, x1 = 0.8941	772.239 ± 0.12	1.439 ± 0.011
328.15 K, x1 = 1	773.73 ± 0.12	–
333.15 K, x1 = 0.1038	746.582 ± 0.14	1.057 ± 0.0086
333.15 K, x1 = 0.2004	749.576 ± 0.13	1.099 ± 0.0089
333.15 K, x1 = 0.3131	752.825 ± 0.13	1.145 ± 0.0092
333.15 K, x1 = 0.3971	755.183 ± 0.13	1.173 ± 0.0094
333.15 K, x1 = 0.4999	758.038 ± 0.13	1.202 ± 0.0095
333.15 K, x1 = 0.6002	760.796 ± 0.13	1.224 ± 0.0097
333.15 K, x1 = 0.6999	763.457 ± 0.13	1.241 ± 0.0098
333.15 K, x1 = 0.7993	765.918 ± 0.13	1.251 ± 0.0099
333.15 K, x1 = 0.8941	767.911 ± 0.13	1.257 ± 0.0099
333.15 K, x1 = 1	769.44 ± 0.13	–
338.15 K, x1 = 0.1038	741.045 ± 0.14	0.9089 ± 0.0077
338.15 K, x1 = 0.2004	744.179 ± 0.14	0.9461 ± 0.0079
338.15 K, x1 = 0.3131	747.58 ± 0.14	0.9857 ± 0.0082
338.15 K, x1 = 0.3971	750.026 ± 0.13	1.013 ± 0.0083
338.15 K, x1 = 0.4999	753.002 ± 0.13	1.042 ± 0.0085
338.15 K, x1 = 0.6002	755.897 ± 0.13	1.064 ± 0.0087
338.15 K, x1 = 0.6999	758.701 ± 0.13	1.081 ± 0.0088
338.15 K, x1 = 0.7993	761.298 ± 0.13	1.094 ± 0.0088
338.15 K, x1 = 0.8941	763.412 ± 0.13	1.105 ± 0.0089
338.15 K, x1 = 1	765.07 ± 0.13	–
343.15 K, x1 = 0.1038	735.409 ± 0.14	0.7889 ± 0.007
343.15 K, x1 = 0.2004	738.697 ± 0.14	0.8213 ± 0.0072
343.15 K, x1 = 0.3131	742.239 ± 0.14	0.8569 ± 0.0074
343.15 K, x1 = 0.3971	744.793 ± 0.14	0.8812 ± 0.0075
343.15 K, x1 = 0.4999	747.895 ± 0.14	0.9085 ± 0.0077
343.15 K, x1 = 0.6002	750.924 ± 0.13	0.9302 ± 0.0078
343.15 K, x1 = 0.6999	753.891 ± 0.13	0.9494 ± 0.0079
343.15 K, x1 = 0.7993	756.647 ± 0.13	0.9642 ± 0.008
343.15 K, x1 = 0.8941	758.895 ± 0.13	0.9753 ± 0.0081
343.15 K, x1 = 1	760.61 ± 0.13	–
